In brackets after ≈: the same amount, converted by molar mass. Read-outs that look alike come from different tables or passages of the source.
Legend:
large crabgrass = test: herbicidal activity, application to plants; format: in vivo; details: applied to foliage of growing plant at 1 lb./acre
Excerpt: The herbicidal compounds of our invention have shown the ability to control undesired plants at levels as low as 1 lb./acre. Herbicidal activity is obtained when the 3-nitropyrazole herbicide is applied to the plants to be controlled in the conventional manner, by direct application as a spray or dry formulation to the plant or its supporting soil.

Streptococcus sp. 80 = test: in vitro tube dilution test (MIC); format: cell-based; details: Streptococcus sp. 80, tube dilution; read-out: MIC
Excerpt: Other compounds of our invention have also been tested in the tube dilution test and shown to have in vitro activity against a number of microorganisms. The table below reports tests of a number of exemplary compounds against exemplary microorganisms. The compounds are identified by their numbers in the listing above. The data are reported as the MIC in micrograms per milliliter against the named exemplary microorganisms.

Escherichia coli = test: in vitro tube dilution test (MIC); format: cell-based; details: tube dilution, read-out: MIC
Method in brief: (§1)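 Standard tube dilution test; MIC reported as micrograms of compound per milliliter.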

Mycoplasma gallisepticum = test: in vitro tube dilution test (MIC); format: cell-based; details: Mycoplasmoides gallisepticum; Mycoplasma gallisepticum, tube dilution; read-out: MIC
Method in brief: as §1

[1] = test system: Staphylococcus aureus sp. 1130; test: in vitro tube dilution test (MIC); format: cell-based; details: read-out: MIC
Salmonella dublin = test: in vitro tube dilution test (MIC); format: cell-based; details: Salmonella enterica; Salmonella dublin, tube dilution; read-out: MIC
Vibrio coli 3811 = test: in vitro tube dilution test (MIC); format: cell-based; details: Campylobacter coli; Vibrio coli 3811, tube dilution; read-out: MIC
Erwinia amylovora = test: Fire blight of pear, in vivo greenhouse test
Procedure: An in vivo test was conducted against the fire blight organism, Erwinia amylovora. Plants infected with E. amylovora were sprayed with aqueous dispersions containing 100 ppm. and 500 ppm. of the test compounds. […] The compounds are identified below by their compound numbers in the above listing.

Salmonella typhimurium = test: Salmonellosis in chickens, single injection to day-old chicks; format: in vivo; details: Salmonella enterica, TYPHIMURIUM, 168 h; single injection of 60 mg./kg.; seven days; read-out: Survival (converted)
Method in brief: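 Five day-old chicks per group received one injection of compound at 60 mg./kg., then were challenged next day by subcutaneous S. typhimurium at a dose lethal to most or all untreated controls. Read-out is survivor count, pooled over repeat groups, with untreated challenged controls run in each batch.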

avian E. coli = test: Colibacillosis in chickens, medicated feed; format: in vivo
[2] = test system: Staphylococcus aureus 3055; test: in vitro tube dilution test (MIC); format: cell-based; details: Staphylococcus aureus 3055, tube dilution
Excerpt: (§2) The other preferred compounds of our invention have also been thoroughly tested in the in vitro tube dilution test.

Escherichia coli 0127 = test: in vitro tube dilution test (MIC); format: cell-based; details: Escherichia coli 0127, tube dilution
Excerpt: as §2

[3] = test system: Mycoplasma gallisepticum 38502; test: in vitro tube dilution test (MIC); format: cell-based; details: Mycoplasmoides gallisepticum; Mycoplasma gallisepticum 38502, tube dilution
Excerpt: as §2

Pseudomonas sp. = test: in vitro tube dilution test (MIC); format: cell-based
Excerpt: (§3) Our compound, 1-(2-hydroxyethyl)-3-nitro-4-pyrazolecarboxamide, has been extensively tested in vitro to determine the range of microorganisms against which it is active. The table of data below reports the minimum inhibitory concentration (MIC) at which the compound is effective in controlling a variety of microorganisms in a standard tube dilution test system. The MIC is reported as micrograms of compound per milliliter.
as §2

Salmonella pullorum Ill. = test: in vitro tube dilution test (MIC); format: cell-based; details: Salmonella enterica
Excerpt: as §3, §2

Mycoplasma hyorhinis = test: in vitro tube dilution test (MIC); format: cell-based
Excerpt: as §3, §2

[4] = test system: Salmonella typhimurium 1335; test: in vitro tube dilution test (MIC); format: cell-based; details: Salmonella enterica; Salmonella typhimurium 1335, tube dilution
Excerpt: as §3, §2

[5] = test system: Salmonella heidelburg 1593; test: in vitro tube dilution test (MIC); format: cell-based; details: Salmonella heidelburg 1593, tube dilution
Excerpt: as §3, §2

H. meleagridis = test: Blackhead in poultry, turkeys; format: in vivo
Procedure: One- to three-week-old chicks and turkey poults were obtained from homogeneous source flocks and allocated into treatment groups. Some groups were held as infected, untreated controls, and other groups were treated with 3-nitropyrazoles by administering the compounds in the birds' feed. Various concentrations of the pyrazoles were administered to determine the least concentration which protected the birds. A few days after the administration of medicated feed began, all of the birds were challenged by rectally administering a suspension of at least 5,000 H. meleagridis protozoa per chick. The challenge organisms had been originally obtained from infected chickens, and were grown in vitro to provide a supply of organisms for testing.
The birds were held for about seven days after the challenge was administered, during which time the administration of pyrazole-medicated feed was continued. Then all of the chicks, including the untreated, infected controls, were sacrificed and necropsied. The cecum and the liver of each bird were examined for characteristic H. meleagridis lesions.
For each compound, the lowest feed concentration which gave an active response is indicated. While feed consumption data were not taken during the tests, the birds ate at such a rate that a feed concentration of 0.02 percent is equivalent to a treatment rate of about 10 mg./kg./day.

S. typhimurium = test: Salmonella typhimurium in chickens, medicated feed; format: in vivo, chicks; details: 200 gm./ton feed; for Avg. Wt.: surviving chicks
P. multocida [6] = test: Mice infected with P. multocida, compound injected subcutaneously; format: in vivo
Procedure: A second test was conducted in much the same way, except that the 3-nitropyrazole was injected to the treated mice subcutaneously at the same time they were infected with the P. multocida culture.

Pasteurella multocida = test: in vitro tube dilution test (MIC); format: cell-based; details: tube dilution, read-out: MIC
Method in brief: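 Standard tube dilution test; MIC is the lowest compound concentration controlling growth, given in μg/mL.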

P. multocida [7] = test: Mice infected with P. multocida, compound in drinking water; format: in vivo; details: 7 days
Procedure: Some of the 3-nitropyrazoles were also administered to mice infected with P. multocida. Tests were conducted in which the pyrazoles were administered both by injection and in the drinking water.
The table below reports results of tests in which the compound was administered in the water. Groups of 10 standardized white mice were segregated, and each mouse was infected by injecting a broth culture of P. multocida subcutaneously. The administration of the test compounds was begun at the same time the mice were infected by adding a known amount of the test compound to the drinking water of the mice. One group of infected control mice received no treatment. The mice were observed, and the test was concluded at the end of 7 days. The number of mice in each group which survived the P. multocida infection was recorded.

[8] = test system: Trypanosoma cruzi (BHC/10 strain); test: use against Trypanosoma cruzi in rodents; format: in vivo; details: 12.5 mg./kg. for 10 days
Procedure: Some 3-nitropyrazoles have been used against Trypanosoma cruzi in rodents. The 3-nitro-1-vinyl-4-pyrazolecarboxamide killed 91 percent of T. cruzi of the BHC/10 strain when administered at 12.5 mg./kg. for 10 days.

[9] = Staphylococcus aureus sp. 1130, tube dilution
[10] = Staphylococcus aureus, SP.1130, Staphyloccocus 1130, tube dilution
[11] = 100 gm./ton, further test, about 5 weeks of age
[12] = 200 gm./ton, further test, about 5 weeks of age
[13] = 300 gm./ton feed, about 5 weeks old, 10^-2 dilution challenge, first test

SMILES	MIC (Streptococcus sp. 80) [µg/mL]	MIC (Escherichia coli) [µg/mL]	MIC (Mycoplasma gallisepticum) [µg/mL]	MIC [1, 9] [µg/mL]	MIC (Salmonella dublin) [µg/mL]	MIC (Vibrio coli 3811) [µg/mL]	Percent Control of fire blight (Erwinia amylovora; 100 ppm.) [%]	Percent Control of fire blight (Erwinia amylovora; 500 ppm.) [%]	responders at 60 mg/kg (Salmonella typhimurium) [%]	MIC [1, 10] [µg/mL]	Avg. Wt. (avian E. coli; [11]) [gm.]	E. coli Lesions (avian E. coli; [11])	Mortality (avian E. coli; [11])	Avg. Wt. (avian E. coli; [12]) [gm.]	E. coli Lesions (avian E. coli; [12])	Mortality (avian E. coli; [12])	E. coli Lesions (avian E. coli; [13])	Mortality (avian E. coli; [13])	Wt. (avian E. coli; [13]) [gm.]	MIC [2] [µg/mL]	other results
CCn1cc(C#N)c([N+](=O)[O-])n1 [Compound 1, 1-ethyl-3-nitro-4-pyrazolecarbonitrile]	100 (≈ 602 µM)	100 (≈ 602 µM)	> 50	100 (≈ 602 µM)	100 (≈ 602 µM)	12.5 (≈ 75.2 µM)															control of large crabgrass (large crabgrass): kills large crabgrass
C=CCn1cc(C(N)=O)c([N+](=O)[O-])n1 [Compound 16, 1-allyl-3-nitro-4-pyrazolecarboxamide]					6.25 (≈ 31.9 µM)	3.12 (≈ 15.9 µM)	100	60	100	6.25 (≈ 31.9 µM)	1112	40/40	16/40	1266	31/40	11/40	16/30	0/30	1090	10 (≈ 51 µM)	MIC (Escherichia coli 0127): 100 µg/mL (≈ 510 µM); MIC [3]: 50 µg/mL (≈ 255 µM); MIC (Pseudomonas sp.): 12.5 µg/mL (≈ 63.7 µM); MIC (Salmonella pullorum Ill.): < 1.56 µg/mL; MIC (Mycoplasma hyorhinis): 50 µg/mL (≈ 255 µM); MIC [4]: 6.25 µg/mL (≈ 31.9 µM); MIC [5]: 25 µg/mL (≈ 127 µM); Active Level (lowest feed concentration which gave an active response) (H. meleagridis): .02%; Survival (S. typhimurium; Test B): 26/36; Avg. Wt. (S. typhimurium; Test B): 88 gm.; Survival (S. typhimurium; Test C): 25/48; Avg. Wt. (S. typhimurium; Test C): 64 gm.
CC(=O)OCCn1cc(C(N)=O)c([N+](=O)[O-])n1 [Compound 80, 2-(4-carbamoyl-3-nitropyrazol-1-yl)ethyl acetate]					12.5	12.5	33	50	70	3.12	1219	38/40	10/40	1308	31/40	6/40	9/30	1/30	1139	10	Survival (P. multocida [6]; 2.5 mg./kg. subcutaneous): 4/10; Survival (P. multocida [6]; 5.0 mg./kg. subcutaneous): 3/10; Survival (P. multocida [6]; 10.0 mg./kg. subcutaneous): 8/10; Survival (P. multocida [6]; 25.0 mg./kg. subcutaneous): 9/10; MIC (Pasteurella multocida): 25 µg/mL; Survival (P. multocida [7]; 0.1 gm./gal. in drinking water): 9/10; Survival (P. multocida [7]; 0.2 gm./gal. in drinking water): 6/10; MIC (Escherichia coli 0127): 100 µg/mL; MIC [3]: 25 µg/mL; MIC (Pseudomonas sp.): 25 µg/mL; MIC (Salmonella pullorum Ill.): < 1.56 µg/mL; MIC (Mycoplasma hyorhinis): 50 µg/mL; MIC [4]: 12.5 µg/mL; MIC [5]: 12.5 µg/mL; Survival (S. typhimurium; Test C): 29/48; Avg. Wt. (S. typhimurium; Test C): 67 gm.
C=Cn1cc(C(N)=O)c([N+](=O)[O-])n1 [Compound 81, 3-nitro-1-vinyl-4-pyrazolecarboxamide]	25 (≈ 137 µM)	1.56 (≈ 8.56 µM)	1.56 (≈ 8.56 µM)	1.56 (≈ 8.56 µM)	1.56 (≈ 8.56 µM)	25 (≈ 137 µM)	100	60			1109	23/40	5/40	918	20/40	6/40					MIC (Pasteurella multocida): 1.56 µg/mL (≈ 8.56 µM); percent of T. cruzi killed [8]: 91%
